Where “and” joins values, the source holds several entries; their conditions need not be identical. Identical values can stand only once.
Legend:
[1] = target: T1, Abg (Agrobacterium Sp. β-glucosidase) (Agrobacterium sp., UniProt P12614); test: Enzymatic conversion of glycoside-drug conjugates at 200 μM analyzed by HPLC; assay type: biochemical; settings: 37 °C; for Product release: 200 μM substrate, 50 mM phosphate buffer pH 6.8, Abg 0.1 U/mL
T1 sequence (P12614 1-459): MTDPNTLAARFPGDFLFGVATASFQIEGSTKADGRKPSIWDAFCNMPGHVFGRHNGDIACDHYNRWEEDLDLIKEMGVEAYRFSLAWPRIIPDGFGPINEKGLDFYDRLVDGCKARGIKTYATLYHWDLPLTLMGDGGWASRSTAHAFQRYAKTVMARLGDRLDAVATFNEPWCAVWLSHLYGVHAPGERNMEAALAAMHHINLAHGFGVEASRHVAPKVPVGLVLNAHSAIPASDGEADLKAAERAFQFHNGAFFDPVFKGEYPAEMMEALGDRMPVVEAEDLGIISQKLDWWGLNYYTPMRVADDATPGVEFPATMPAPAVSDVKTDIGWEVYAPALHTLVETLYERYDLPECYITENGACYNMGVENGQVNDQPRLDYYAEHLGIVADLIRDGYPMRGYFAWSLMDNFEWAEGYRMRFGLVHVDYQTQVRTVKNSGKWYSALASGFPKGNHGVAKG

[2] = Control experiments without enzyme (stability in assay buffer); assay type: physicochemical; settings: 200 μM, 50 mM phosphate buffer pH 6.8, 37 °C, HPLC
[3] = pH stability test and stability in formulation; assay type: physicochemical
Description: In vivo experiments. […] To investigate the chemical stability towards conditions in the gastrointestinal tract, we performed pH stability test. […] The pharmacokinetic profile of 10 h was studied in a dog‐animal model (adult beagle).

[4] = In vivo pharmacokinetics study after oral gavage, losartan in blood by LC-MS-MS; design: species or system female Beagle dogs; settings: 15 μmol/kg oral gavage, Beagle dog; for Intact conjugate in the blood circulation: LC-MS-MS
[5] = target: T2, Agrobacterium Sp. β-glucosidase (Abg, GH1 family) (Agrobacterium sp., UniProt P12614); test: Michaelis-Menten kinetics of enzymatic hydrolysis, release of 4-nitrophenol (absorbance at 405 nm); assay type: biochemical; settings: transglycosylation suggested for rate enhancement
T2 sequence (P12614 1-459): T1 sequence (P12614 1-459)
Description: Enzymatic reactions were performed in triplo at pH 6.8 (50 mM final concentration) containing 0.1 % bovine serum albumin at 37 °C.[25] Aliquots of 100 μL were taken at constant time periods and added to 100 μL aq. NaOH (0.1 M) in a 96‐well microtitre plate to quench the enzymatic reaction and ensure maximal absorption of sodium 4‐nitrophenolate as outlined in previous studies.[28] The initial rate (vo) was determined normalized on the ∼0.1 U/mL enzyme concentration and plotted against substrate concentration [S]. Non‐linear regression analysis based on 7–10 concentrations depending on the glycoside, was used to determine the Km and k cat values. k cat values were normalized based on the enzyme concentration. […]
Kinetic evaluation of 4- nitrophenyloxymethyl glycosides. Enzyme reactions were performed in triplicate. Substrate samples (final volume of 1 mL) were prepared by diluting carefully prepared substrate stock solutions with sodium phosphate buffer pH 6.8 (50 mM final concentration) containing 0.1% bovine serum albumin and milliQ to the desired concentration. The samples were equilibrated at 37 °C for at least 5 minutes before the enzyme in 50 mM buffer (2 U per ml, 50 uL) was added. Aliquots of 100 µL were taken at constant time periods and added to 100 µL aq. NaOH (0.1 M) in a 96 well microtiter plate to quench the enzymatic reaction. The absorbance was measured at 405 nm using a Tecan Spark M10 plate reader.
Negative assay controls contained no substrate or no enzyme. Rates of the enzymatic reactions were determined at 7 different substrate concentrations from 0.02 – 1.0 mM. Km and kcat values were determined by nonlinear regression analysis using Graphpad 5.0 (GraphPad Software, San Diego, California USA, www.graphpad.com) for fitting the data. Calibration samples at varying concentration (0.05 – 0.5 mM) were prepared similar to the substrate samples in the enzyme reactions by diluting a carefully prepared 4-nitrophenol stock solution with sodium phosphate buffer pH 6.8 (50 mM final concentration) containing 0.1% bovine serum albumin and milliQ to the desired concentration. […]
(T1 determined as 9.13 sec.) was used. Dynamic measurements were started by heating the sample in the NMR to 37 °C and recording a t0-spectrum. Subsequently Abg (V = 2.05 uL, 0.82 U, 1.64 U/mL) was added to the sample outside of the NMR. The sample was mixed by shaking and quickly reintroduced to the NMR.
The time of enzyme addition was recorded as t0. Spectra were recorded over an appropriate time- scale with the relaxation delay at 3*T1 of the internal standard.
In vivo experiments were performed at the company Charles Rivers (Den Bosch, The Netherlands) in accordance with Dutch law of animal experiments and under approval of the central committee of animal experiments (CCD). Relative and absolute bioavailability may be determined in different animal models and according to different protocols.
The following protocol is typical for determining bioavailability in female Beagle dogs. The animals were deprived from food over a time period of 8 h prior to administration and 2 h after administration of the test molecules. Water was supplied without limitation. On the study day, the animals received test molecule 10h […]
ethanol and 0.9% NaCl + 5% mannitol in water. Blood samples were collected from the jugular vein on the […]

[6] = target: T1, Abg (Agrobacterium Sp. β-glucosidase); test: Enzymatic hydrolysis at 13 mM studied by quantitative 1H NMR; assay type: biochemical; settings: 13 mM substrate in D2O, maleate buffer pD 6.5, Abg 1.6 U/mL, 37 °C

SMILES: O=c1[nH]c(=O)n(CO[C@@H]2O[C@H](CO)[C@@H](O)[C@H](O)[C@H]2O)cc1F [10 f]
- Product release ([1]; 0.5 h): 46% and 45.8±5.2%
- Product release ([1]; 1.0 h): 65.2±1.5%
- Product release ([1]; 2.0 h): 77.8±9.7%
- Degradation in the control experiment (without enzyme) [2]: no degradation was observed

SMILES: CCCCc1nc(Cl)c(CO)n1Cc1ccc(-c2ccccc2-c2nnnn2CO[C@@H]2O[C@H](CO)[C@@H](O)[C@H](O)[C@H]2O)cc1 [10 h]
- Enzymatic hydrolysis by Abg (in words) ([1]; 200 μM, HPLC, in presence of 5 % ethanol): hydrolyzed efficiently
- Product release ([1]; 0.5 h, in presence of 5 % ethanol): 29.3±0.24%
- Product release ([1]; 1.0 h, in presence of 5 % ethanol): 50.4±0.4%
- Product release ([1]; 2.0 h, in presence of 5 % ethanol): 77.2±0.7%
- Stability in formulation ([3]; formulation for oral gavage): stable in formulation
- Chemical stability under acidic conditions ([3]; pH 1–2): stable for 16 h
- Release of the parent drug under acidic conditions ([3]; pH 1–2, 16 h): did not show any release of the parent drug
- Maximum concentration (Cmax) of losartan versus dosing of parent (in words) [4]: higher
- Intact conjugate in the blood circulation [4]: no intact conjugate was detected
- Intact conjugate in the blood circulation ([4]; listed as 19): no conjugate was detected

SMILES: O=[N+]([O-])c1ccc(O[C@@H]2O[C@H](CO)[C@@H](O)[C@H](O)[C@H]2O)cc1 [6 a, reference compound]
- V0 at high substrate concentration (in words) [5]: followed a horizontal asymptote
- Release of 4-nitrophenol followed by 1H NMR (in words) [6]: release of 4‐nitrophenol

SMILES: O=[N+]([O-])c1ccc(OCO[C@@H]2O[C@H](CO)[C@@H](O)[C@H](O)[C@H]2O)cc1 [5 a, 4‐nitrophenyloxymethyl glucoside]
- Release of 4-nitrophenol followed by 1H NMR (in words) [6]: showed release of 4‐nitrophenol

Source: paper PMC9304170, “Chloromethyl Glycosides as Versatile Synthons to Prepare Glycosyloxymethyl‐Prodrugs” (Chemistry (Weinheim an Der Bergstrasse, Germany), 2022)
